Reference: ChEMBL document CHEMBL1130610, “Synthesis and immunosuppressant activity of pyrazole carboxamides” (Bioorg Med Chem Lett, 1998)
Converted amounts (≈) assume the structure as drawn. The source made the active and inactive calls. The calls are words filed in the database; no cut-off is given here.

Columns and labels:
Rattus norvegicus [1] = species: Rattus norvegicus; experiment: Immunosuppressant activity in rat using mixed leukocyte response (MLR).; format: functional
Homo sapiens [2] = species: Homo sapiens; experiment: Immunosuppressant activity using human mixed leukocyte response (HMLR).; format: functional
Homo sapiens [3] = species: Homo sapiens; experiment: Compound was tested for immunosuppressant activity using human mixed leukocyte response(HMLR) assay.; format: functional
Homo sapiens [4] = species: Homo sapiens; experiment: Compound was tested for immunosuppressant activity using human mixed leukocyte response(HMLR) at a concentration of 10 uM; Not active; format: functional
Rattus norvegicus [5] = species: Rattus norvegicus; experiment: Compound was tested for immunosuppressant activity in rat using mixed leukocyte response(MLR) at a concentration of 10 uM; Not active; format: functional
[6] = Half-life value was evaluated; format: ADME
[7] = C max value was evaluated; format: ADME, organism-based; details: in vivo
[8] = Aqueous solubility at a pH of 7.3.; format: physicochemical; details: pH 7.3, read-out: S
Homo sapiens [9] = species: Homo sapiens; experiment: Compound was tested for immunosuppressant activity using human mixed leukocyte response(HMLR); Not active, < 20 % inhibition at 10 uM; format: functional
Rattus norvegicus [10] = species: Rattus norvegicus; experiment: Compound was tested for immunosuppressant activity in rat using mixed leukocyte response(MLR); Not active, < 20 % inhibition at 10 uM; format: functional
Homo sapiens [11] = species: Homo sapiens; experiment: Compound was tested for immunosuppressant activity using human mixed leukocyte response(HMLR) at 10 uM; Not active; format: functional
Homo sapiens [12] = species: Homo sapiens; experiment: Compound was tested for immunosuppressant activity using human mixed leukocyte response (HMLR).; format: functional
Rattus norvegicus [13] = species: Rattus norvegicus; experiment: Compound was tested for immunosuppressant activity in rat using mixed leukocyte response (MLR).; format: functional

Compound | IC50 (Rattus norvegicus [1]) [nM] | IC50 (Homo sapiens [2]) [nM] | other results
Cc1c(C(=O)Nc2ccc(C(F)(F)F)cc2)cnn1CCc1ccc(F)cc1 | 1700 | 5400 | 
Cc1c(C(=O)Nc2ccccc2F)cnn1-c1ccc(F)cc1 | 5100 | 4000 | 
Cc1c(C(=O)Nc2ccc(OC(F)(F)F)cc2)cnn1-c1ccc(F)cc1 | 2600 | 3400 | 
Cc1c(C(=O)Nc2ccc(C(F)(F)F)cc2)cnn1-c1ccc([N+](=O)[O-])cc1 | 2300 | 5700 | 
Cc1n[nH]cc1C(=O)Nc1ccc(C(F)(F)F)cc1 |  |  | inhibition at 10 µM (Homo sapiens [4]): < 20%; inhibition at 10 µM (Rattus norvegicus [5]): < 20%
Cc1c(C(=O)Nc2ccc(C(F)(F)F)cc2)cnn1Cc1ccc(F)cc1 | 2400 | 3600 | 
C/C(Nc1ccc([N+](=O)[O-])cc1)=C(/C#N)C(=O)Nc1ccc(C(F)(F)F)cc1 |  |  | inhibition (Homo sapiens [9]): inactive; inhibition (Rattus norvegicus [10]): inactive
COc1cccc(-n2ncc(C(=O)Nc3ccc(C(F)(F)F)cc3)c2C)c1 | 2500 | 2500 | 
Cc1ccc(-n2ncc(C(=O)Nc3ccc(C(F)(F)F)cc3)c2C)cc1 | 1000 | 410 | 
Cc1c(C(=O)Nc2ccc(C(F)(F)F)cc2)cnn1-c1ccc(F)cc1 |  |  | half-life [6]: 822 min; Cmax [7]: 460 ng/mL; IC50 (Homo sapiens [12]): 850 nM; IC50 (Rattus norvegicus [13]): 270 nM; solubility [8]: 0.4 µg/mL (≈ 1.1 µM)
Cc1c(C(=O)Nc2ccc(C(F)(F)F)cc2)cnn1-c1ccc(Cl)cc1 | 7400 | 410 | 
C/C(Nc1ccc(F)cc1)=C(/C#N)C(=O)Nc1ccc(C(F)(F)F)cc1 |  |  | inhibition (Homo sapiens [9]): inactive; inhibition (Rattus norvegicus [10]): inactive
C/C(Nc1ccccc1)=C(/C#N)C(=O)Nc1ccc(C(F)(F)F)cc1 |  |  | inhibition (Homo sapiens [9]): inactive; inhibition (Rattus norvegicus [10]): inactive
Cc1c(C(=O)Nc2cccc(C(F)(F)F)c2)cnn1-c1ccc(F)cc1 | 1100 | 1700 | 
COc1cccc(NC(=O)c2cnn(-c3ccc(F)cc3)c2C)c1 | 3600 | 3700 | 
Cc1c(C(=O)Nc2ccc(C(F)(F)F)cc2)cnn1Cc1ccccc1 | 2700 | 3700 | 
Cc1c(-c2ccc(-c3ccccc3F)cc2)nc2ccc(F)cc2c1C(=O)O [BREQUINAR] | 1600 | 3900 | 

Continued by falling IC50 (Rattus norvegicus [1]), values first:

IC50 (Rattus norvegicus [1]) [nM] | IC50 (Homo sapiens [2]) [nM] | Compound | other results
1000 | 5400 | Cc1oncc1C(=O)Nc1ccc(C(F)(F)F)cc1 [LEFLUNOMIDE] | 
1000 | 340 | COc1ccc(-n2ncc(C(=O)Nc3ccc(C(F)(F)F)cc3)c2C)cc1 | 
890 | 5700 | Cc1cccc(NC(=O)c2cnn(-c3ccc(F)cc3)c2C)c1 | 
890 | 2500 | Cc1cccc(-n2ncc(C(=O)Nc3ccc(C(F)(F)F)cc3)c2C)c1 | 
800 | 3000 | Cc1c(C(=O)Nc2cccc(F)c2)cnn1-c1ccc(F)cc1 | 
650 | 2300 | Cc1c(C(=O)Nc2ccc(C(F)(F)F)cc2)cnn1-c1ccccc1 | 
610 |  | Cc1c(C(=O)Nc2ccc(F)cc2)cnn1-c1ccc(F)cc1 | IC50 (Homo sapiens [3]): 2400 nM
410 | 2200 | Cc1cc(C)cc(-n2ncc(C(=O)Nc3ccc(C(F)(F)F)cc3)c2C)c1 | 
330 |  | Cc1c(C(=O)NCc2ccc(F)cc2)cnn1-c1ccc(F)cc1 | inhibition at 10 µM (Homo sapiens [11]): < 20%
310 | 3200 | Cc1c(C(=O)N(CC(=O)O)c2ccc(C(F)(F)F)cc2)cnn1-c1ccc(F)cc1 | half-life [6]: 360 min; Cmax [7]: 4450 ng/mL; solubility [8]: 1530 µg/mL (≈ 3640 µM)
300 |  | Cc1c(C(=O)NCCc2ccc(F)cc2)cnn1-c1ccc(F)cc1 | inhibition at 10 µM (Homo sapiens [4]): < 20%
260 | 2600 | Cc1c(C(=O)Nc2ccc(C(F)(F)F)cc2)cnn1-c1ccccc1C(F)(F)F | 
240 | 1600 | Cc1c(C(=O)Nc2ccc(C(F)(F)F)cc2)cnn1-c1cccc(Cl)c1Cl | 
220 | 3100 | Cc1c(C(=O)Nc2ccc(C(F)(F)F)cc2)cnn1-c1cccc(F)c1 | 
210 | 1300 | Cc1c(C(=O)Nc2ccc(C(F)(F)F)cc2)cnn1-c1ccc(F)c(Cl)c1 | 
200 | 540 | Cc1ccc(NC(=O)c2cnn(-c3ccc(F)cc3)c2C)cc1 | 
150 | 1500 | Cc1ccccc1-n1ncc(C(=O)Nc2ccc(C(F)(F)F)cc2)c1C | 
110 | 1100 | Cc1ccccc1NC(=O)c1cnn(-c2ccc(F)cc2)c1C | 
110 | 580 | CCCCC(CC)NC(=O)c1cnn(-c2ccc(F)cc2)c1C (stereo not given) | 
110 | 1100 | Cc1c(C(=O)Nc2ccc(C(F)(F)F)cc2)cnn1-c1ccccc1F | 
